Reference: patent US20150011751A1, “NOVEL TRIAZINE DERIVATIVE” (CARNA BIOSCIENCES, INC., priority 2012, published 2015)
Where a name gives a salt, the structure may show the parent alone.

What follows are compounds tested against Dephosphorylated BTK (Homo sapiens, UniProt Q06187) (assay: Test of activity inhibition against dephosphorylated BTK (mobility shift assay)).
Chain of Dephosphorylated BTK (Q06187 whole entry): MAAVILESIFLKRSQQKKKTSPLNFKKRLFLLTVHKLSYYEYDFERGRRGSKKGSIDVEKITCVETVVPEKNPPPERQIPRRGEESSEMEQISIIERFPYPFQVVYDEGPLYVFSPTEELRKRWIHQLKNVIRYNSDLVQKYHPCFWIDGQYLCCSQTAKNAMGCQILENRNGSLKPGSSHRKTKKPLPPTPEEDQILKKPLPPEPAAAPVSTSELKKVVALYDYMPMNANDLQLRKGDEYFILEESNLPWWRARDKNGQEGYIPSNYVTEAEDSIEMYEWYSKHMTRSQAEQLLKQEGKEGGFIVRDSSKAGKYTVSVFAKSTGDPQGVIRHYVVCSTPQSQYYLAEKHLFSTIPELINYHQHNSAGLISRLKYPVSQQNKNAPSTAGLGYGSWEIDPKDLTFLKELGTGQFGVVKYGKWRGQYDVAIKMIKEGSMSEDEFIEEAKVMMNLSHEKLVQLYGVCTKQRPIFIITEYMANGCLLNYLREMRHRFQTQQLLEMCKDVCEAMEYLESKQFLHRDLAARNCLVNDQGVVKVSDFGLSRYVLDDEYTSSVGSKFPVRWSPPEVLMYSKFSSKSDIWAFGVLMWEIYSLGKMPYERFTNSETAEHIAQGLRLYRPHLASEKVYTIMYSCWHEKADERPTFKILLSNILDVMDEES
Experimental: Kinase activity was measured by a mobility shift assay (MSA) method using QuickScout Screening Assist (trademark) MSA (commercially available kit, manufactured by Carna Biosciences, Inc.). FITC-labeled SRCtide peptide supplied with the kit was used as a substrate of a kinase reaction.
IC50 value was calculated by regression analysis of the inhibition ratio and the test compound concentration (logarithm).
Dephosphorylated BTK was obtained by adding a A protein phosphatase (Code No. P0753S, manufactured by New England BioLabs Inc.) and MnCl2 to a biotinylated BTK protein BTN-BTK (manufactured by Carna Biosciences, Inc.) enzyme solution so as to adjust the concentrations to 10 U/μg and 2 mM, respectively, reacting the mixture at 4° C. overnight, removing the A protein phosphatase through anti-[sequence]-tag antibody agarose gel chromatography, and performing buffer exchange using 10DG Desalting Column.
`Cc1c(NC(=O)c2ccc(C(C)(C)C)cc2)cccc1-c1ncnc(Nc2ccc(C(=O)NCCN(C)C)cc2)n1` [Example 17, 4-(tert-Butyl)-N-(3-{4-[(4-{[2-(dimethylami-no)ethyl]carbamoyl}phe-nyl)amino]-1,3,5-tri-azin-2-yl)-2-methyl-phenyl)benzamide] gave an IC50 of 5.1 nM.
`Nc1nc(Nc2ccc(OCCN3CCOCC3)cc2)nc(-c2cccc(N3CCc4cc(C5CC5)cc(F)c4C3=O)c2CO)n1` [Example 196, 2-[3-(4-Amino-6-{[4-(2-morpholinoethoxy)phe-nyl]amino}-1,3,5-tri-azin-2-yl)-2-(hydroxy-methyl)phenyl]-6-cyclo-propyl-8-fluoro-3,4-dihydroisoquinolin-1(2H)-one formate] gave an IC50 of 3.4 nM.
Compound `Nc1nc(Nc2ccc(N3CCOCC3)cc2)nc(-c2cccc(NC(=O)c3ccc(C(F)(F)F)cc3)c2CO)n1` [Example 168, N-(3-{4-Amino-6-[(4-morpholinophenyl)amino]-1,3,5-triazin-2-yl}-2-(hydroxymethyl)phe-nyl)-4-(trifluorometh-yl)benzamide] has an IC50 of 17.6 nM.
`Cc1c(NC(=O)c2ccc(C(C)(C)C)cc2)cccc1-c1ncnc(Nc2ccc(N3CCOCC3)cc2)n1` [Example 24, 4-(tert-Butyl)-N-(2-meth-yl-3-{4-[(4-morpho-linophenyl)amino]-1,3,5-triazin-2-yl}phenyl) benzamide] showed an IC50 of 3.4 nM.
With `CC(C)(C)c1ccc(C(=O)Nc2cccc(-c3nc(N)nc(Nc4cccc(CO)c4)n3)c2CO)cc1` [Example 122, N-[3-(4-Amino-6-{[3-(hy-droxymethyl)phenyl]amino}-1,3,5-triazin-2-yl)-2-(hydroxymethyl)phenyl]-4-(tert-butyl)benzamide] the IC50 was 0.8 nM.
For `CC(C)(C)c1cc2c(s1)C(=O)N(c1cccc(-c3nc(N)nc(Nc4ccc(N5CCOCC5)cc4)n3)c1CO)C2` [Example 73, 5-(3-{4-Amino-6-[(4-morpho-linophenyl)amino]-1,3,5-triazin-2-yl}-2-(hydroxymethyl)phe-nyl)-2-(tert-butyl)-4H-thieno[2,3-c]pyrrol-6(5H)-one], the IC50 was 1.3 nM.
`Nc1nc(Nc2ccc(N3CCC(O)CC3)cc2)nc(-c2cccc(N3CCc4cc(C5CC5)cc(F)c4C3=O)c2CO)n1` [Example 52, 2-[3-(4-Amino-6-{[4-(4-hydroxypiperidin-1-yl)phenyl]amino}-1,3,5-triazin-2-yl)-2-(hy-droxymethyl)phenyl]-6-cyclopropyl-8-fluoro-3,4-dihydroisoquinolin-1(2H)-one] was tested, and the IC50 was 1.6 nM.
`CC(C)(C)c1ccc(C(=O)Nc2cccc(-c3nc(N)nc(Nc4ccc(OCCn5cccc5)cc4)n3)c2CO)cc1` [Example 150, N-{3-[4-({4-[2-(1H-Pyr-rol-1-yl)ethoxy]phe-nyl}amino)-6-amino-1,3,5-triazin-2-yl]-2-(hy-droxymethyl)phenyl}-4-(tert-butyl)benzamide] gave an IC50 of 0.8 nM.
`Nc1nc(Nc2ccc(N3CCOCC3)cc2)nc(-c2cccc(NC(=O)c3ccc(C4CC4)cc3F)c2CO)n1` [Example 145, N-(3-{4-Amino-6-[(4-morpholinophenyl)amino]-1,3,5-triazin-2-yl}-2-(hydroxymethyl)phe-nyl)-4-cyclopropyl-2-fluorobenzamide] gave an IC50 of 1.8 nM.
`Nc1nc(Nc2ccn([C@H]3CCOC3)c2)nc(-c2cccc(N3CCc4cc(C5CC5)cc(F)c4C3=O)c2CO)n1` [Example 249, (S)-2-[3-(4-Amino-6-{[1-(tetrahydrofuran-3-yl)-1H-pyrrol-3-yl]ami-no}-1,3,5-triazin-2-yl)-2-(hydroyxmethyl)phenyl]-6-cyclopropyl-8-fluoro-3,4-dihydro-isoquinolin-1(2H)-one] showed an IC50 of 1 nM.
With `COc1cc(Nc2nc(N)nc(-c3cccc(NC(=O)c4ccc(C(C)(C)C)cc4)c3CO)n2)cc(OC)c1OCCCO` [Example 188, N-[3-(4-Amino-6-{[4-(3-hyroxypropoxy)-3,5-dimethoxyphenyl]ami-no}-1,3,5-triazin-2-yl)-2-(hydroxymethyl)phe-nyl]-4-(tert-butyl) benzamide] the IC50 was 0.4 nM.
For `CC(=O)N1CCN(c2ccc(Nc3nc(N)nc(-c4cccc(N5CCc6cc(C7CC7)cc(F)c6C5=O)c4CO)n3)cc2)CC1` [Example 220, 2-[3-(4-{[4-(4-Acetyl-piperazin-1-yl)phenyl]amino}-6-amino-1,3,5-triazin-2-yl)-2-(hy-droxymethyl)phenyl]-6-cyclopropyl-8-fluoro-3,4-dihydroisoquinolin-1(2H)-one], the IC50 was 2.3 nM.
In the case of `Nc1nc(Nc2ccc(Cn3cncn3)cc2)nc(-c2cccc(N3CCc4cc(C5CC5)cc(F)c4C3=O)c2CO)n1` [Example 49, 2-{3-[4-({4-[(1H-1,2,4-Triazol-1-yl)methyl]phenyl}amino)-6-amino-1,3,5-triazin-2-yl]-2-(hydroxymethyl)phe-nyl}-6-cyclopropyl-8-fluoro-3,4-dihydroiso-quinolin-1(2H)-one], the IC50 is reported as 1.1 nM.
For `CCN(CC)CCOc1ccc(Nc2nc(N)nc(-c3cccc(NC(=O)c4ccc(C(C)(C)C)cc4)c3CO)n2)cc1` [Example 159, N-{3-[4-Amino-6-({4-[2-(diethylamino)ethoxy]phenyl}amino)-1,3,5-triazin-2-yl]-2-(hy-droxymethyl)phenyl}-4-(tert-butyl)benzamide], the IC50 was 5.9 nM.
Work on `CC(C)(C)c1ccc(C(=O)Nc2cccc(-c3nc(N)nc(Nc4ccc(OCCN5CCOCC5)cc4)n3)c2CO)cc1` [Example 78, N-[3-(4-Amino-6-{[4-(2-morpholinoethoxy)phe-nyl]amino}-1,3,5-tri-azin-2-yl)-2-(hydroxy-methyl)phenyl]-4-(tert-butyl)benzamide] yielded an IC50 of 1.2 nM.
`Nc1nc(Nc2cnn(C3CCNCC3)c2)nc(-c2cccc(N3CCc4cc(C5CC5)cc(F)c4C3=O)c2CO)n1` [Example 223, 2-[3-(4-Amino-6-{[1-(piperidin-4-yl)-1H-py-razol-4-yl]amino}-1,3,5-triazin-2-yl)-2-(hy-droxymethyl)phenyl]-6-cyclopropyl-8-fluoro-3,4-dihydro-isoquinolin-1(2H)-one] showed an IC50 of 0.6 nM.
`Cc1c(NC(=O)c2ccc(C(C)(C)C)cc2)cccc1-c1nc(N)nc(Nc2ccc(N3CCN(CCO)CC3)cc2)n1` [Example 93, N-{3-[4-Amino-6-({4-[4-(2-hydroxyethyl)piperazin-1-yl]phenyl}ami-no)-1,3,5-triazin-2-yl]-2-methylphenyl}-4-(tert-butyl)benzamide] gave an IC50 of 1.3 nM.
For `CC(C)(F)c1ccc(C(=O)Nc2cccc(-c3nc(N)nc(Nc4ccc(N5CCOCC5)cc4)n3)c2CO)cc1` [Example 209, N-(3-{4-Amino-6-[(4-morpholinophenyl)amino]-1,3,5-triazin-2-yl}-2-(hydroxymethyl)phe-nyl)-4-(2-fluoropropan-2-yl)benzamide], the IC50 was 1.4 nM.
In the case of `Nc1nc(Nc2ccn(CC3CCOCC3)c2)nc(-c2cccc(N3CCc4cc(C5CC5)cc(F)c4C3=O)c2CO)n1` [Example 254, 2-{3-[4-Amino-6-({1-[(tetra-hydro-2H-pyran-4-yl)methyl]-1H-pyrrol-3-yl}amino)-1,3,5-tri-azin-2-yl]-2-(hydroxy-methyl)phenyl}-6-cyclo-propyl-8-fluoro-3,4-dihydroisoquinolin-1(2H)-one], the IC50 is reported as 1.4 nM.
In the case of `Nc1nc(Nc2ccc(N3CCC(O)CC3)cc2)nc(-c2cccc(NC(=O)c3cc4c(s3)CCCC4)c2CO)n1` [Example 128, N-[3-(4-Amino-6-{[4-(4-hydroxypiperidin-1-yl)phenyl]amino}-1,3,5-triazin-2-yl)-2-(hy-droxymethyl)phenyl]-4,5,6,7-tetrahydrobenzo [b]thiophene-2-carbox-amide], the IC50 is reported as 0.6 nM.
For `Nc1nc(Nc2ccc(CN3CCOCC3)cc2)nc(-c2cccc(N3CCc4cc(C5CC5)cc(F)c4C3=O)c2CO)n1` [Example 45, 2-[3-(4-Amino-6-{[4-(morpho-linomethyl)phe-nyl]amino}-1,3,5-tri-azin-2-yl)-2-(hydroxymeth-yl)phenyl]-6-cyclopro-pyl-8-fluoro-3,4-di-hydroisoquinolin-1(2H)-one], the IC50 was 1.7 nM.
In the case of `CC(C)(C)c1ccc(C(=O)Nc2cccc(-c3nc(N)nc(Nc4ccc(OCCCO)cc4)n3)c2CO)cc1` [Example 200, N-[3-(4-Amino-6-{[4-(3-hydroxypropoxy)phe-nyl]amino}-1,3,5-triazin-2-yl)-2-(hydroxymeth-yl)phenyl]-4-(tert-butyl)benzamide], the IC50 is reported as 0.8 nM.
Compound `CC(C)(C)c1ccc(C(=O)Nc2cccc(-c3nc(N)nc(Nc4ccc(CN5CCOCC5)cc4)n3)c2CO)cc1` [Example 79, N-[3-(4-Amino-6-{[4-(morpho-linomethyl)phe-nyl]amino}-1,3,5-triazin-2-yl)-2-(hydroxymeth-yl)phenyl]-4-(tert-butyl)benzamide] has an IC50 of 0.6 nM.
In the case of `C=CCn1cc(Nc2nc(N)nc(-c3cccc(N4CCc5cc(C6CC6)cc(F)c5C4=O)c3CO)n2)cn1` [Example 274, 2-(3-{4-[(1-Allyl-1H-pyrazol-4-yl)amino]-6-amino-1,3,5-triazin-2-yl}-2-(hydroxymethyl)phenyl)-6-cyclopropyl-8-fluoro-3,4-dihydro-isoquinolin-1(2H)-one], the IC50 is reported as 1 nM.
With `CN1CCN(C)C(c2ccc(Nc3nc(N)nc(-c4cccc(NC(=O)c5ccc(C(C)(C)C)cc5)c4CO)n3)cc2)C1=O` (stereo not drawn) [Example 89, N-[3-(4-Amino-6-{[4-(1,4-dimethyl-3-oxo-piperazin-2-yl)phenyl]ami-no}-1,3,5-triazin-2-yl)-2-(hydroxymethyl)phenyl]-4-(tert-butyl) benzamide] the IC50 was 0.6 nM.
`Nc1nc(Nc2cccc(Cn3cncn3)c2)nc(-c2cccc(N3CCc4cc(C5CC5)cc(F)c4C3=O)c2CO)n1` [Example 51, 2-{3-[4-({3-[(1H-1,2,4-Triazol-1-yl)methyl]phenyl}amino)-6-amino-1,3,5-triazin-2-yl]-2-(hydroxymethyl)phe-nyl}-6-cyclopropyl-8-fluoro-3,4-dihydroiso-quinolin-1(2H)-one] gave an IC50 of 2 nM.
With `CC(C)(C)c1ccc(C(=O)Nc2cccc(-c3nc(N)nc(Nc4ccc(Cn5cccn5)cc4)n3)c2CO)cc1` [Example 160, N-{3-[4-({4-[(1H-Pyra-zol-1-yl)methyl]phenyl}amino)-6-amino-1,3,5-triazin-2-yl]-2-(hy-droxymethyl)phenyl}-4-(tert-butyl)benzamide] the IC50 was 0.8 nM.
